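Interpolation was linear, between the two tested concentrations surrounding the appropriate level; five concentrations were tested over 48 hours in 96-well plates. Abbreviation: GI50, concentration required for 50% inhibition of growth. The concentration for full growth arrest is given as TGI.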
What was measured:
Assay in all cases: DTP human tumour cell line panel, 48 h
786-0 renal = tested on: 786-0 renal
A498 renal = tested on: A498 renal
A549 NSCLC = tested on: A549 NSCLC
ACHN renal = tested on: ACHN renal
BT-549 breast = tested on: BT-549 breast
CAKI-1 renal = tested on: CAKI-1 renal
CCRF-CEM leukemia = tested on: CCRF-CEM leukemia
COLO 205 colon = tested on: COLO 205 colon
DU-145 prostate = tested on: DU-145 prostate
EKVX NSCLC = tested on: EKVX NSCLC
HCC-2998 colon = tested on: HCC-2998 colon
HCT-116 colon = tested on: HCT-116 colon
HCT-15 colon = tested on: HCT-15 colon
HL-60(TB) leukemia = tested on: HL-60(TB) leukemia
HOP-62 NSCLC = tested on: HOP-62 NSCLC
HOP-92 NSCLC = tested on: HOP-92 NSCLC
HS 578T breast = tested on: HS 578T breast
HT29 colon = tested on: HT29 colon
IGROV1 ovarian = tested on: IGROV1 ovarian
K-562 leukemia = tested on: K-562 leukemia
KM12 colon = tested on: KM12 colon
LOX IMVI melanoma = tested on: LOX IMVI melanoma
M14 melanoma = tested on: M14 melanoma
MALME-3M melanoma = tested on: MALME-3M melanoma
MCF7 breast = tested on: MCF7 breast
MDA-MB-231 breast = tested on: MDA-MB-231 breast
MOLT-4 leukemia = tested on: MOLT-4 leukemia
NCI-H23 lung = tested on: NCI-H23 lung
NCI-H460 lung = tested on: NCI-H460 lung
NCI-H522 lung = tested on: NCI-H522 lung
NCI/ADR-RES ovarian = tested on: NCI/ADR-RES ovarian
OVCAR-3 ovarian = tested on: OVCAR-3 ovarian
OVCAR-4 ovarian = tested on: OVCAR-4 ovarian
OVCAR-5 ovarian = tested on: OVCAR-5 ovarian
OVCAR-8 ovarian = tested on: OVCAR-8 ovarian
PC-3 prostate = tested on: PC-3 prostate
RPMI-8226 leukemia = tested on: RPMI-8226 leukemia
RXF 393 renal = tested on: RXF 393 renal
SF-268 CNS = tested on: SF-268 CNS
SF-295 CNS = tested on: SF-295 CNS
SF-539 CNS = tested on: SF-539 CNS
SK-MEL-2 melanoma = tested on: SK-MEL-2 melanoma
SK-MEL-28 melanoma = tested on: SK-MEL-28 melanoma
SK-MEL-5 melanoma = tested on: SK-MEL-5 melanoma
SK-OV-3 ovarian = tested on: SK-OV-3 ovarian
SN12C renal = tested on: SN12C renal
SNB-19 CNS = tested on: SNB-19 CNS
SNB-75 CNS = tested on: SNB-75 CNS
SR leukemia = tested on: SR leukemia
SW-620 colon = tested on: SW-620 colon
T-47D breast = tested on: T-47D breast
TK-10 renal = tested on: TK-10 renal
U251 CNS = tested on: U251 CNS
UACC-257 melanoma = tested on: UACC-257 melanoma
UACC-62 melanoma = tested on: UACC-62 melanoma
UO-31 renal = tested on: UO-31 renal

Structure (SMILES): COc1ccc2c(c1OC)C(=O)OC2C1c2c(c(N)c3c(c2OC)OCO3)CCN1C (configuration not stated)
- GI50 (786-0 renal): 7.51 µM
- TGI (786-0 renal): > 100 µM
- GI50 (A498 renal): 2.44 µM
- TGI (A498 renal): 13.3 µM
- GI50 (A549 NSCLC): 6.23 µM
- TGI (A549 NSCLC): > 100 µM
- GI50 (ACHN renal): 6.75 µM
- TGI (ACHN renal): > 100 µM
- GI50 (BT-549 breast): 2.32 µM
- TGI (BT-549 breast): 9.12 µM
- GI50 (CAKI-1 renal): 3.81 µM
- TGI (CAKI-1 renal): > 100 µM
- GI50 (CCRF-CEM leukemia): 2.63 µM
- TGI (CCRF-CEM leukemia): 8.44 µM
- GI50 (COLO 205 colon): 5.6 µM
- TGI (COLO 205 colon): 26 µM
- GI50 (DU-145 prostate): 2.8 µM
- TGI (DU-145 prostate): 12 µM
- GI50 (EKVX NSCLC): 5.18 µM
- TGI (EKVX NSCLC): > 100 µM
- GI50 (HCC-2998 colon): 6.86 µM
- TGI (HCC-2998 colon): 28.2 µM
- GI50 (HCT-116 colon): 3.19 µM
- TGI (HCT-116 colon): 14.6 µM
- GI50 (HCT-15 colon): 2.64 µM
- TGI (HCT-15 colon): 8.38 µM
- GI50 (HL-60(TB) leukemia): 4.02 µM
- TGI (HL-60(TB) leukemia): 26.4 µM
- GI50 (HOP-62 NSCLC): 5.15 µM
- TGI (HOP-62 NSCLC): > 100 µM
- GI50 (HOP-92 NSCLC): 12.2 µM
- TGI (HOP-92 NSCLC): 59.3 µM
- GI50 (HS 578T breast): 2.75 µM
- TGI (HS 578T breast): 9.39 µM
- GI50 (HT29 colon): 3.96 µM
- TGI (HT29 colon): 52.8 µM
- GI50 (IGROV1 ovarian): 1.68 µM
- TGI (IGROV1 ovarian): 6.68 µM
- GI50 (K-562 leukemia): 4.43 µM
- TGI (K-562 leukemia): > 100 µM
- GI50 (KM12 colon): 3.33 µM
- TGI (KM12 colon): 62.7 µM
- GI50 (LOX IMVI melanoma): 4.8 µM
- TGI (LOX IMVI melanoma): 24 µM
- GI50 (M14 melanoma): 1.86 µM
- TGI (M14 melanoma): 4.41 µM
- GI50 (MALME-3M melanoma): 6.51 µM
- TGI (MALME-3M melanoma): > 100 µM
- GI50 (MCF7 breast): 3.11 µM
- TGI (MCF7 breast): 16.1 µM
- GI50 (MDA-MB-231 breast): 3.15 µM
- TGI (MDA-MB-231 breast): 20.7 µM
- GI50 (MOLT-4 leukemia): 4.96 µM
- TGI (MOLT-4 leukemia): > 100 µM
- GI50 (NCI-H23 lung): 4.74 µM
- TGI (NCI-H23 lung): > 100 µM
- GI50 (NCI-H460 lung): 3.37 µM
- TGI (NCI-H460 lung): 11.6 µM
- GI50 (NCI-H522 lung): 2.07 µM
- TGI (NCI-H522 lung): 5.3 µM
- GI50 (NCI/ADR-RES ovarian): 1.58 µM
- TGI (NCI/ADR-RES ovarian): 3.2 µM
- GI50 (OVCAR-3 ovarian): 4.01 µM
- TGI (OVCAR-3 ovarian): 34.6 µM
- GI50 (OVCAR-4 ovarian): 5.33 µM
- TGI (OVCAR-4 ovarian): > 100 µM
- GI50 (OVCAR-5 ovarian): 9.35 µM
- TGI (OVCAR-5 ovarian): 38.8 µM
- GI50 (OVCAR-8 ovarian): 3.94 µM
- TGI (OVCAR-8 ovarian): 35.2 µM
- GI50 (PC-3 prostate): 3.42 µM
- TGI (PC-3 prostate): > 100 µM
- GI50 (RPMI-8226 leukemia): 3.04 µM
- TGI (RPMI-8226 leukemia): 12.2 µM
- GI50 (RXF 393 renal): 4.25 µM
- TGI (RXF 393 renal): > 100 µM
- GI50 (SF-268 CNS): 4.57 µM
- TGI (SF-268 CNS): 23 µM
- GI50 (SF-295 CNS): 5.59 µM
- TGI (SF-295 CNS): 61.8 µM
- GI50 (SF-539 CNS): 2.11 µM
- TGI (SF-539 CNS): 5.53 µM
- GI50 (SK-MEL-2 melanoma): 3.17 µM
- TGI (SK-MEL-2 melanoma): 28.2 µM
- GI50 (SK-MEL-28 melanoma): 8.71 µM
- TGI (SK-MEL-28 melanoma): > 100 µM
- GI50 (SK-MEL-5 melanoma): 3.03 µM
- TGI (SK-MEL-5 melanoma): 13.2 µM
- GI50 (SK-OV-3 ovarian): 3.23 µM
- TGI (SK-OV-3 ovarian): 23.4 µM
- GI50 (SN12C renal): 4.46 µM
- TGI (SN12C renal): 21.9 µM
- GI50 (SNB-19 CNS): 2.7 µM
- TGI (SNB-19 CNS): 9.25 µM
- GI50 (SNB-75 CNS): 2.83 µM
- TGI (SNB-75 CNS): 11.9 µM
- GI50 (SR leukemia): 3.18 µM
- TGI (SR leukemia): 29.2 µM
- GI50 (SW-620 colon): 3.26 µM
- TGI (SW-620 colon): > 100 µM
- GI50 (T-47D breast): 2.63 µM
- TGI (T-47D breast): 19.6 µM
- GI50 (TK-10 renal): 6.57 µM
- TGI (TK-10 renal): > 100 µM
- GI50 (U251 CNS): 3.94 µM
- TGI (U251 CNS): > 100 µM
- GI50 (UACC-257 melanoma): 27.3 µM
- TGI (UACC-257 melanoma): > 100 µM
- GI50 (UACC-62 melanoma): 4.04 µM
- TGI (UACC-62 melanoma): > 100 µM
- GI50 (UO-31 renal): 5.28 µM
- TGI (UO-31 renal): 92.8 µM
